target: T1, Human autotaxin enzyme (Homo sapiens, UniProt Q13822); assay: Evaluation of autotaxin inhibitor, Method C (Test Example 3): 18:0 Lyso PC, choline assay, Resorufin fluorescence; type: biochemical; conditions: Assay Method C (Test Example 3), human autotaxin, 18:0 Lyso PC substrate; read-out: Inhibitory Activity (autotaxin enzyme inhibitory activity, IC50 class)
T1 construct: purchased R&D System
Method in brief: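 Choline-coupled fluorescence readout (20 min, resorufin at 531/598 nm) followed a 2 h room-temperature reaction of human autotaxin with 18:0 Lyso PC substrate (added as 200 μM solution) in pH 7.5 Tris buffer containing MgCl2 and Triton X-100. Percent inhibition scaled to no-compound (0%) and no-enzyme (100%) wells and plotted versus concentration.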

IC50 [nM]	Structure (SMILES)
10 to 100	CCCCCn1c(N2CCNC(C(=O)O)C2)cc(=O)n2cc(-c3ccc(Cl)cc3)nc12 (centres unmarked) [Compound 658]
10 to 100	CCCCCn1c(N2CCC[C@H]2C(=O)N[C@H](C)C(=O)O)cc(=O)n2cc(-c3ccc(Cl)cc3)nc12 [Compound 678]
100 to 1000	C[C@H](NC(=O)[C@@H]1CCCN1c1cc(=O)n2cc(-c3ccc(Cl)cc3)nc2n1C)C(=O)O [Compound 771]
10 to 100	CCCCCn1c(N2CCC[C@H]2C(=O)N2CCO[C@H](C(=O)O)C2)cc(=O)n2cc(-c3ccc(Cl)cc3)nc12 [Compound 680]
100 to 1000	CCCCCn1c(N2CCC[C@H]2C(=O)N2CCCC(C(=O)OCC)C2)cc(=O)n2cc(-c3ccc(Cl)cc3)nc12 (some centres unmarked) [Compound 696]
10 to 100	CCCCCn1c(N2CC[C@@H](C(=O)O)C2)cc(=O)n2cc(-c3ccc(Cl)cc3)nc12 [Compound 669]
100 to 1000	CCCCCn1c(N2CCC[C@H]2C(=O)N[C@@H]2CNC(=O)C2)cc(=O)n2cc(-c3ccc(Cl)cc3)nc12 [Compound 705]
> 1000	CCCCCn1c(NC2(C(=O)O)CC2)cc(=O)n2cc(-c3ccc(Cl)cc3)nc12 [Compound 610]
100 to 1000	CCCCCn1c(N2CCC[C@H]2C(=O)NCCCCN(C)C)cc(=O)n2cc(-c3ccc(Cl)cc3)nc12 [Compound 656]
> 1000	CCCCCn1c(N2CCNC[C@@H]2C(=O)O)cc(=O)n2cc(-c3ccc(Cl)cc3)nc12 [Compound 659]
100 to 1000	CCCCCn1c(OCC2(C)COC2)cc(=O)n2cc(-c3ccc(Cl)cc3)nc12 [Compound 719]
< 10	CCCCCn1c(N2CCC[C@H]2C(=O)N[C@@H](C)C(=O)O)cc(=O)n2cc(-c3ccc(Cl)cc3)nc12 [Compound 675]
< 10	C[C@H](NC(=O)[C@@H]1C[C@@H](O)CN1c1cc(=O)n2cc(-c3ccc(Cl)cc3)nc2n1Cc1ccccc1)C(=O)O [Compound 754]
100 to 1000	CCCCCn1c(N2CCC[C@H]2C(=O)N[C@@H]2CCCNC2=O)cc(=O)n2cc(-c3ccc(Cl)cc3)nc12 [Compound 711]
< 10	CCCCCn1c(N2C[C@@H](O)C[C@H]2C(=O)N[C@@H](C)C(=O)O)cc(=O)n2cc(-c3ccc(Cl)cc3)nc12 [Compound 779]
< 10	CCCCCn1c(N2CCC[C@H]2C(=O)N2CCO[C@@H](C(=O)O)C2)cc(=O)n2cc(-c3ccc(Cl)cc3)nc12 [Compound 681]
< 10	CCCCCn1c(N2CCC[C@H]2C(=O)N[C@@H](CCC)C(=O)O)cc(=O)n2cc(-c3ccc(Cl)cc3)nc12 [Compound 731]
> 1000	Cn1c(N2C[C@H](O)C[C@H]2C(=O)NCC(=O)O)cc(=O)n2cc(-c3ccc(Cl)cc3)nc12 [Compound 773]
> 1000	CCCCCn1c(N2CCC[C@H]2C(=O)NCCN2CCCC2)cc(=O)n2cc(-c3ccc(Cl)cc3)nc12 [Compound 647]
10 to 100	CCCCCn1c(N2CCC[C@H]2C(=O)NC2(C(=O)OC)CC2)cc(=O)n2cc(-c3ccc(Cl)cc3)nc12 [Compound 693]
< 10	CCCCCn1c(N2CCC[C@H]2C(=O)NCCCCN2CC(C)OC(C)C2)cc(=O)n2cc(-c3ccc(Cl)cc3)nc12 (some centres unmarked) [Compound 657]
10 to 100	CCCCCn1c(N2CCCC[C@H]2C(=O)NCC(=O)O)cc(=O)n2cc(-c3ccc(Cl)cc3)nc12 [Compound 633]
< 10	O=C(O)[C@H](CCc1ccccc1)NC(=O)[C@@H]1CCCN1c1cc(=O)n2cc(-c3ccc(Cl)cc3)nc2n1Cc1ccccc1 [Compound 745]
< 10	CCCCCn1c(N2CCC[C@H]2C(=O)NC(C)(C)C(=O)O)cc(=O)n2cc(-c3ccc(Cl)cc3)nc12 [Compound 674]
< 10	CCCCCn1c(N2CCC[C@H]2C(=O)N2CCC[C@@H](C(=O)O)C2)cc(=O)n2cc(-c3ccc(Cl)cc3)nc12 [Compound 673]
100 to 1000	CCCCCn1c(N2CCC3(CC2)COC3)cc(=O)n2cc(-c3ccc(Cl)cc3)nc12 [Compound 716]

The next lines start with the compound.

Structure (SMILES)	IC50 [nM]
CCCCCn1c(O[C@@H]2CCN(C(=O)OC(C)(C)C)C2)cc(=O)n2cc(-c3ccc(Cl)cc3)nc12 [Compound 550]	100 to 1000
CCCCCn1c(O[C@H]2CCN(CC(=O)OC(C)(C)C)C2)cc(=O)n2cc(-c3ccc(Cl)cc3)nc12 [Compound 573]	10 to 100
CCCCCn1c(-c2cccc(C(=O)NCCOC)c2)cc(=O)n2cc(-c3ccc(Cl)cc3)nc12 [Compound 436]	10 to 100
CCCCCn1c(N2CCC3(CN(C(=O)OC(C)(C)C)C3)C2)cc(=O)n2cc(-c3ccc(Cl)cc3)nc12 [Compound 313]	100 to 1000
CCCCCn1c(-c2ccnc(OC)c2)cc(=O)n2cc(-c3ccc(Cl)cc3)nc12 [Compound 460]	100 to 1000
CCCCCn1c(-c2cccc(S(=O)(=O)N3CCOCC3)c2)cc(=O)n2cc(-c3ccc(Cl)cc3)nc12 [Compound 452]	10 to 100
CCCCCn1c(O[C@H]2CC[C@H](C(C)(C)C(=O)O)CC2)cc(=O)n2cc(-c3ccc(Cl)cc3)nc12 [Compound 556]	10 to 100
CCCCCn1c(C)cc(=O)n2cc(C3CCC(C(F)(F)F)CC3)nc12 (centres unmarked) [Compound 137]	100 to 1000
CCCCCn1c(N2CCCC[C@H]2C(=O)O)cc(=O)n2cc(-c3ccc(Cl)cc3)nc12 [Compound 604]	100 to 1000
CCCCCn1c(N2CCC[C@H]2C(=O)O)cc(=O)n2cc(-c3ccc(Cl)cc3)nc12 [Compound 334]	> 1000
CCCCCn1c(-c2ccc(C(=O)NCCc3ccccn3)cc2)cc(=O)n2cc(-c3ccc(Cl)cc3)nc12 [Compound 508]	10 to 100
CCCCCn1c(N2C[C@@H](O)C[C@H]2C(=O)NC(C)(C)CC(=O)O)cc(=O)n2cc(-c3ccc(Cl)cc3)nc12 [Compound 586]	< 10
CCCCCn1c(N2CCCC(CO)C2)cc(=O)n2cc(-c3ccc(Cl)cc3)nc12 (centres unmarked) [Compound 301]	100 to 1000
CCCCCn1c(OCc2ccc(C(=O)O)cc2)cc(=O)n2cc(-c3ccc(Cl)cc3)nc12 [Compound 194]	10 to 100
CCCCCn1c(-c2cnc(OC)c(Cl)c2)cc(=O)n2cc(-c3ccc(Cl)cc3)nc12 [Compound 458]	100 to 1000
CN(C)CCNC(=O)c1ccc(-c2cc(=O)n3cc(-c4ccc(C(F)(F)F)cc4)nc3n2CCCCC#N)cc1 [Compound 377]	10 to 100

Structure (SMILES)	IC50 [nM]
CCCCCn1c(N2CCCC(F)(F)C2)cc(=O)n2cc(-c3ccc(Cl)cc3)nc12 [Compound 321]	100 to 1000
CCCCCn1c(-c2cccc(C(C)=O)c2)cc(=O)n2cc(-c3ccc(Cl)cc3)nc12 [Compound 447]	10 to 100
CCCCCn1c(-c2cnc(OC)nc2)cc(=O)n2cc(-c3ccc(Cl)cc3)nc12 [Compound 373]	10 to 100
CCCCCn1c(-c2ccc(C(=O)N3C[C@@H]4COC(=O)[C@@H]4C3)cc2)cc(=O)n2cc(-c3ccc(Cl)cc3)nc12 [Compound 503]	10 to 100
CCCCCn1c(N(C)C(C)=O)cc(=O)n2cc(-c3ccc(Cl)cc3)nc12 [Compound 361]	> 1000
CCCCCn1c(-c2ccc(NC(C)=O)cc2)cc(=O)n2cc(-c3ccc(Cl)cc3)nc12 [Compound 434]	100 to 1000
CCCCCn1c(N2C[C@H](F)C[C@H]2C(=O)NC(C)(C)CC(=O)O)cc(=O)n2cc(-c3ccc(Cl)cc3)nc12 [Compound 583]	< 10
CCCCCn1c(N2C[C@@H](F)C[C@H]2C(=O)NC(C)(C)CC(=O)O)cc(=O)n2cc(-c3ccc(Cl)cc3)nc12 [Compound 584]	< 10
CCCCCn1c(OC2CCN(CC(=O)N3CCOCC3)CC2)cc(=O)n2cc(-c3ccc(Cl)cc3)nc12 [Compound 548]	100 to 1000
CCCCCn1c(OC2CN(CCC(=O)O)C2)cc(=O)n2cc(-c3ccc(Cl)cc3)nc12 [Compound 570]	< 10
CCCCCn1c(OC2CCN(C(=O)CN3CCOCC3)CC2)cc(=O)n2cc(-c3ccc(Cl)cc3)nc12 [Compound 539]	10 to 100
CCCCCn1c(N2C[C@@H](F)C[C@H]2C(=O)NCCC(=O)OCC)cc(=O)n2cc(-c3ccc(Cl)cc3)nc12 [Compound 592]	10 to 100
CCCCCn1c(-c2ccc(C(=O)NC3CCOC3=O)cc2)cc(=O)n2cc(-c3ccc(Cl)cc3)nc12 (centres unmarked) [Compound 502]	10 to 100
CCCCCn1c(O[C@H]2CCN(C(=O)OC(C)(C)C)C2)cc(=O)n2cc(-c3ccc(Cl)cc3)nc12 [Compound 549]	10 to 100
CCCCCn1c(-c2ccc(C(=O)NCc3ncc[nH]3)cc2)cc(=O)n2cc(-c3ccc(Cl)cc3)nc12 [Compound 525]	10 to 100

same assay, conditions: Assay Method C, human autotaxin, 18:0 Lyso PC substrate; read-out: Inhibitory Activity

IC50 [nM]	Structure (SMILES)
100 to 1000	CCCCCn1c(N2CCCC[C@H]2C)cc(=O)n2cc(-c3ccc(Cl)cc3)nc12 [Compound 814]
100 to 1000	N#CCCNC(=O)Cc1cn(CCCC(F)(F)F)c2nc(-c3ccc(Cl)cc3)cn2c1=O [Compound 830]
> 1000	O=C(Cc1cn(CCCC(F)(F)F)c2nc(-c3ccc(Cl)cc3)cn2c1=O)N[C@H]1CCN(C2COC2)C1 [Compound 852]
> 1000	CCCCCn1c(N2CCCCC2CNC(=O)OC(C)(C)C)cc(=O)n2cc(-c3ccc(Cl)cc3)nc12 (centres unmarked) [Compound 806]
100 to 1000	CCCCCn1c(N2CC3CC3C2)cc(=O)n2cc(-c3ccc(Cl)cc3)nc12 (centres unmarked) [Compound 810]
100 to 1000	CN(CCC#N)C(=O)Cc1cn(CCCC(F)(F)F)c2nc(-c3ccc(Cl)cc3)cn2c1=O [Compound 831]
100 to 1000	C[C@@H]1COC[C@H](C)N1C(=O)Cc1cn(CCCC(F)(F)F)c2nc(-c3ccc(Cl)cc3)cn2c1=O [Compound 850]
10 to 100	CCCCCn1c(N2CCC[C@H]2C(=O)NC(C(N)=O)c2ccccc2)cc(=O)n2cc(-c3ccc(Cl)cc3)nc12 (some centres unmarked) [Compound 789]
10 to 100	C[C@H]1CCCCN1C(=O)Cc1cn(CCCC(F)(F)F)c2nc(-c3ccc(Cl)cc3)cn2c1=O [Compound 867]
100 to 1000	O=C(Cc1cn(CCCC(F)(F)F)c2nc(-c3ccc(Cl)cc3)cn2c1=O)NCc1cc(=O)[nH]o1 [Compound 842]
100 to 1000	CCCCCn1c(N2CCC[C@H]2C(=O)Nc2ccc(OC)c(O)c2)cc(=O)n2cc(-c3ccc(Cl)cc3)nc12 [Compound 798]

Reference: US20160002247A1, “8-SUBSTITUTED IMIDAZOPYRIMIDINONE DERIVATIVE HAVING AUTOTAXIN INHIBITORY ACTIVITY” (THE UNIVERSITY OF TOKYO, priority 2013, published 2016)
